From patent US7825139B2, “Compounds and methods for selective inhibition of dipeptidyl peptidase-IV” (Forest Laboratories Holdings Limited (BM), priority 2005, dated 2010) come the findings set out here.

Data set [1] relates to Zucker Obese Fatty rats. Put plainly: Toxicity in rats, oral dosing. The data set is classed as in vivo, rat. The note with it: 5-10 mg/kg, 4-24 hrs post-dose, all Zucker Obese Fatty rats tested. An excerpt:
Toxicity in Rats: The Zucker Diabetic Fatty (ZDF) rat model can be used to investigate the effects of the compounds of the invention on both the treatment and prevention of diabetes as rats of this sub-strain are initially pre-diabetic although they develop severe type 2 diabetes characterized by increased HbAl c levels over a period of 6 weeks. The same strain can be used to predict the clinical efficacy of other anti-diabetic drug types. For example, the model predicts the potency and limited clinical efficacy of thiazolidinedione insulin sensitizer compounds. The experimental protocol requires p.o. (oral gavage) administration of either vehicle or test article at indicated doses either QD or BID using a gastric feeding needle with a ball tip, without anesthesia, using hand restraint to adult rats which have been fasted overnight. Animals are monitored for clinical signs at 1, 2, 4 and 8 hour time intervals following the treatment regimen. Whole blood samples (to a maximum level of 10% of the total blood volume every 2 weeks) were collected from the animals from the retro-orbital sinus in accordance with the guidelines of the IACUC committee.
The expected therapeutic dose level could not be reached for the comparative compounds before acute toxicity was observed.

Data set [2] has as its target T1, DPP-IV (Sus scrofa, UniProt P22411).
T1 construct: from tissue; host or cells: porcine
Put plainly: DPP-IV fluorometric enzyme inhibition assay (Gly-Pro-AMC). The data set is classed as biochemical, porcine. As for the experimental part:
The following methods were used to measure the activities of the compounds of the invention which inhibit the enzymatic activity of DPP-IV. The compounds of the invention are tested for their ability to inhibit the enzyme activity of purified DPP-IV. Briefly, the activity of DPP-IV is measured in vitro by its ability to cleave the synthetic substrate Gly-Pro-AMC. Cleavage of Gly-Pro-AMC by DPP-IV liberates the product AMC (7-amino-4-methyl coumarin), whose rate of appearance is directly proportional to the enzyme activity. Inhibition of the enzyme activity by specific enzyme inhibitors slows down the generation of AMC. […] The accumulation of AMC is measured fluorometrically. […]
Thus, DPP-IV enzyme activity was determined by a fluorometric assay with the substrate Gly-Pro-AMC which is cleaved by DPP-IV to release the fluorescent AMC leaving group. Free AMC (7-amino-4-methyl coumarin) was measured using an excitation wavelength of 380 nm and an emission wavelength of 460 nm with a Victor-II fluorescent reader. […] After 10-minutes substrate was added (10 μl) and allowed to react for 20-minutes at 26° C. before free AMC was measured. IC50 values were determined in triplicate, using a minimum of six different inhibitor concentrations. IC50 values were calculated using Nonlinear Regression Analysis (GraphPad, Prism, San Diego, Calif.). […]

The test system of data set [3] is dogs. Put plainly: Toxicity in dogs, escalated oral dose study. The data set is classed as in vivo. The note with it: at 2.0 mg/kg, within 2-4 hours of dosing. The procedure:
The 2.0 mg/kg dose of compound 19 correlated with the time above the DPP-VIII IC90 but not with the time above DPP-IX IC90. By comparison, a previously known selective inhibitor (compound 10 in U.S. patent application Ser. […]

T1 sequence (P22411 whole entry): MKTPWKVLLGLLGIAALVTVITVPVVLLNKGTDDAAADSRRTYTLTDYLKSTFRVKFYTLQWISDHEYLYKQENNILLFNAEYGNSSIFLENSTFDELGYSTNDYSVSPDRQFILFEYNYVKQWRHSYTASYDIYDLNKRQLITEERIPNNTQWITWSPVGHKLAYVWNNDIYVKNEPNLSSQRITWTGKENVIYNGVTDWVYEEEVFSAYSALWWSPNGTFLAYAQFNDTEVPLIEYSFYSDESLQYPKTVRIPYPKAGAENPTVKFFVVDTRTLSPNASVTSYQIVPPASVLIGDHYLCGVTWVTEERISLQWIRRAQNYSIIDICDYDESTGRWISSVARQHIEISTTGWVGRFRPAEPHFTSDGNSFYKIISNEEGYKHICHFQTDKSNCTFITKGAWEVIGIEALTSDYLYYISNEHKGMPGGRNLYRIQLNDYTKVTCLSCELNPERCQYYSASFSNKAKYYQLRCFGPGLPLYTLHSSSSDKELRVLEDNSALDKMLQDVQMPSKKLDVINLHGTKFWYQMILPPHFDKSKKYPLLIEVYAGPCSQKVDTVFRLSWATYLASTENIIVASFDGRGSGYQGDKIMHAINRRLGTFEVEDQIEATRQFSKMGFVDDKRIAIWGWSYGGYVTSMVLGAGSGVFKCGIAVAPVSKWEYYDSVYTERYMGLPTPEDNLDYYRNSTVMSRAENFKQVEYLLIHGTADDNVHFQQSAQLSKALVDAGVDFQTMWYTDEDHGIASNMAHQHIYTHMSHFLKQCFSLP

As to `O=C(CNC1CCCC1)N1CCC[C@H]1B(O)O` [Compound 19], in data set [1], the “acute toxicity in rats” value is given as “acute toxicity (death)”. Besides, in data set [2], the “inhibition of DPP-IV (in words)” value is listed as “potent inhibitor”. The toxicity in dogs result in data set [3] is “severe emesis and diarrhea”.
